These results are taken from patent US12285490B2, “ASH1L degraders and methods of treatment therewith” (The Regents of the University of Michigan, priority 2017, dated 2025).

For assay [1], the system named is acute leukemia cell lines. In words: Differentiation of leukemia cells (Cytospin/Wright-Giemsa staining). The conditions noted are these: after 7 days of treatment. It is filed as cell-based, human. The protocol:
1×10^5 of leukemia cells treated with compounds or DMSO were harvested and placed in a Shandon EZ Single Cytofunnel (Thermo Fisher). Samples were centrifuged at 600 rpm for 5 min. The slides were air dried before staining with a Hema-3 kit (Thermo Fisher).

Assay [2] has as its system acute leukemia cell lines. In words: Cell viability / proliferation in various acute leukemia cell lines. It is filed as cell-based, human. Conditions: after 7 days of treatment. The protocol:
(§1) Human leukemia cells were plated at 1×10^5 cells/ml in 24-well plates, treated with 0.25% DMSO or compounds and cultured at 37° C. for 7-14 days. Every four days, the volume corresponding to 1×10^5 cells of DMSO-treated cells was spun down and resuspended in fresh media with fresh compound. At day 0 and each four day interval, 100 μl aliquots of the cell suspension were transferred to 96-well plates in quadruplicates. The quadruplicate samples were incubated for 3-4 days at 37° C., and then an MTI cell proliferation assay kit (Roche) was used to measure viable cells. Absorbance was read at 570 nm using a PHERAstar (BMG) microplate reader.

In assay [3] the target is T1, ASH1L (Homo sapiens, UniProt Q9NR48).
T1 construct: endogenous in cells; host or cells: HeLa cells
In words: Western blot of ASH1L degradation in HeLa cells. It is filed as cell-based. The protocol:
The 2.5×10^5 HeLa cells were treated with compounds for 24 h followed by the lysis in the RIPA buffer. The protein samples were loaded and run in the 3-8% Tris-acetate gel. After transferring proteins to the PVDF membrane, 5% bovine serum albumin solution was used for blocking for 2 h at room temperature. The membranes were incubated with the ASH1L-specific antibody (Bethyl A301-749A) at 4° C. overnight and subsequently with the anti-rabbit secondary antibody (Cell signaling technology, 7074S). The blots were detected by an ECL detection system (Amersham, RPN2236).
(In general: Immunoblotting shows a protein as a band on a membrane.)

Assay [4] has as its system MLL fusion target genes in MV4:11 MLL leukemia cell line. The assay can be described thus: Quantitative RT-PCR gene expression in MV4:11 cells. It is filed as cell-based, human. Conditions: after 7 days of treatment. The protocol:
(§2) Total RNA was extracted from cells using the RNeasy mini kit (QIAGEN), and then 100-2000 ng of total RNA was reverse transcribed using the High Capacity cDNA Reverse Transcription Kit (Applied Biosystems) according to the manufacturer's protocol. Real-time PCR was performed using a CFX96 Real-Time PCR Detection System (Biorad). TaqMan Gene Expression Master Mix and TaqMan Gene Expression Assays were purchased from Thermo Fisher. Relative quantification of each gene transcript was carried out using the ΔΔCt method as described in the Biorad Real-Time PCR Applications Guide.

Assay [5] has as its system MOLM13. The assay can be described thus: Cell viability assay (MTT) in MOLM13 cells. It is filed as cell-based. Conditions: Homo sapiens, MOLM-13, 168 h; MOLM13, after 7 days of treatment. The protocol:
as §1

In assay [6] the test system is MV4:11. The assay can be described thus: Cell viability assay (MTT) in MV4:11 cells. It is filed as cell-based. The conditions noted are these: Homo sapiens, 168 h; MV4:11, after 7 days of treatment. The protocol: as §1
For assay [7], the system named is KOPN8. The assay can be described thus: Cell viability assay (MTT) in KOPN8 cells. It is filed as cell-based. The conditions noted are these: Homo sapiens, KOPN-8, 168 h; KOPN8, after 7 days of treatment. The protocol: as §1
Assay [8] deals with K562 control cell line. In words: Cell viability assay (MTT) in K562 control cell line. It is filed as cell-based. Conditions: Homo sapiens, 168 h, after 7 days of treatment. The protocol:
as §1

The subject of assay [9] is MV4:11 xenotransplantation model. The assay can be described thus: In vivo efficacy in MV4:11 xenotransplantation model. The conditions noted are these: MV4:11 xenotransplantation model in mice, 25 mg/kg, i.p., q.d., 17 days of treatment. The source says: Exemplary compounds disclosed herein, were used for in vivo studies in mice. Immunocompromised 8-10 week-old female NSG mice were used for in vivo efficacy studies in accordance with IACUC guidelines. Luciferase expressing human MV4:11 leukemia cells (MV4:11-luc) were engrafted intravenously via tail vein injection (1×10^7 cells/animal). Five days after transplantation mice were randomly assigned to a vehicle control or a compound treatment group (6-7 animals per group). Animals in each of the treatment groups were administered vehicle or compound A of the present disclosure by intraperitoneal (i.p.) injection. Treatment was continued for 17 days. Body weight was measured daily, while mean luminescence signal was measured in all mice at days 10 and 17 after initiating the treatment. […]

In assay [10] the test system is MLL fusion protein target genes in MOLM13 leukemia cell line. In words: Quantitative RT-PCR gene expression in MOLM13 cells. It is filed as cell-based, human. The conditions noted are these: after 6 days of treatment at 150 nM. The protocol:
as §2

By GI50 is commonly meant the concentration giving 50% growth inhibition. Higher therefore signals less potent growth inhibition.

Regarding `NC(=S)c1cccc(-c2cn(CC(CF)CF)c3cc(NC(=O)CCOCCOCCOCCOc4cccc5c4C(=O)N(C4CCC(=O)NC4=O)C5=O)ccc23)c1` (stereo not drawn) [Compound 1, N-(3-(3-carbamothioylphenyl)-1-(3-fluoro-2-(fluoromethyl)propyl)-1H-indol-6-yl)-3-(2-(2-(2-((2-(2,6-dioxopiperidin-3-yl)-1,3-dioxoisoindolin-4-yl)oxy)ethoxy)ethoxy)ethoxy)propanamide], the Differentiation result in assay [1] is listed as “induces differentiation”. Also, the “Cell proliferation / viability” value in assay [2] was “selectively blocks proliferation”. Besides, the “Degradation of ASH1L” value in assay [3] (FIG. 1, Western blot) is “Degradation of Ash1L induced”. For the same compound, the “Expression of MLL fusion target genes” value in assay [4] is “downregulates expression of MLL fusion target genes”.

Turning to `NC(=S)c1cccc(-c2cn(C3CCC(F)(F)CC3)c3cc(NC(=O)CCCCCCCCNC(=O)COc4cccc5c4C(=O)N(C4CCC(=O)NC4=O)C5=O)ccc23)c1` (stereo not drawn) [Compound 24, N-(3-(3-carbamothioylphenyl)-1-(4,4-difluorocyclohexyl)-1H-indol-6-yl)-9-(2-((2-(2,6-dioxopiperidin-3-yl)-1,3-dioxoisoindolin-4-yl)oxy)acetamido)nonanamide], the GI50 in assay [5] is 52 nM; in assay [6] it was 62 nM; in assay [7] it was 103 nM; in assay [8], over 6000 nM. In addition, the “Cell proliferation / viability” value in assay [2] is recorded as “inhibits viability”. Moreover, the “Degradation of ASH1L” value in [3] (HeLa cells, after 24 h of treatment, FIG. 4 Panel A) was “induces degradation of ASH1L”. For the same compound, the “Leukemia progression in vivo (bioluminescence signal, hCD45+ cells)” value in [9] is reported as “blocks leukemia progression”. The “Expression of MLL fusion protein target genes” value in assay [10] is “downregulates the expression of MLL fusion protein target genes”.
